Entries after “also recorded” stand apart in the source; their conditions may differ.
Tests used:
[1] = target: T1, TDP-431-260 binding to its canonical RNA sequence (UG6) (Homo sapiens, UniProt Q13148); test: Amplified luminescent proximity homogeneous alpha assay (ALPHA), RNA/TDP-43 disruption; conditions: TDP-431-260-His 0.75 nM, biotinylated-UG6 RNA 0.6 nM; read-out: IC50 of disruption of TDP-431-260 / UG6 RNA interaction
T1 construct: TDP-431-260-His (0.75 nM) and a single concentration of biotinylated-UG6 RNA (0.6 nM); made in house
Description: FIG. 5. RNA/TDP-43 disruption by nTRD22. A concentration-dependent curve was obtained for nTRD22's disruption of nucleic acid-TDP-431-260 interaction at a single RNA concentration (0.6 nM). Data is represented as mean±SEM (n=3).
To define which residues in the RRM domains were affected, the chemical-shift perturbations (CSP) induced by nTRD22 were mapped onto the known structure of TDP-43102-269 (PDB: 4bs2^15) using a color gradient (FIG. 4F,G). […] More precisely, L106/1107 and G148/V150 are part of RNP-2 and RNP-1 of RRM1 respectively, while C196 is part of RNP-2 in RRM2^16. Moreover, C173 is also shown to be affected in presence of RNA^15. […] It should be noted that in repeated experiments, different residues are shifted and although one representative spectrum is shown here (FIG. 4), the average shift from three experiments are also reported (FIG. 10). […] To test this, an amplified luminescent proximity homogeneous (alpha) assay recently developed for another compound targeting TDP-43^17 was used. TDP-431-260 binding to its canonical RNA sequence (UG6) was measured with ranging concentrations of compound and nTRD22 was able to inhibit 50% of the interaction with an IC50 of ˜100 μM (FIG. 5).
Amplified luminescent proximity homogeneous alpha assay (ALPHA). […]

[2] = target: T2, TDP-43102-269 (RRM region) (Homo sapiens, UniProt Q13148); test: 2D 15N-HSQC NMR of TDP43 102-269 (RRM region) with compound; assay type: binding; conditions: 4:1 molar ratio
T2 construct: made in house
Description: (§1) To further characterize where nTRD22 binds on TDP-43, perturbations were measured using a 2D ^15N-HSQC NMR with increasing concentrations of nTRD22, up to a 8:1 molar ratio of nTRD22:TDP-431-260 (FIG. 4). […] To determine if these shifts were due to direct binding of nTRD22 to TDP-43102-269 (RRM region), a 2D ^15HSQC-NMR on TDP43102-269 with nTRD22 at a 4:1 molar ratio was collected (FIG. 4D, E).
(§2) Heteronuclear Single Quantum Correlation-NMR (HSQC-NMR). NMR spectra were acquired in 40 mM HEPES pH 6.5, 500 mM NaCl, 4 mM DTT with 10% D20 at 100 μM protein concentrations using 5 mm Shigemi NMR tubes. NMR data were collected at 298 K on a Bruker Avance NEO 600 MHz and 800 MHz spectrometers with TCI-H&F/C/N probe. NMR processing and analysis was done using NMRpipe, NMRDraw and NMRFAM-Sparky. Transverse relaxation optimized spectroscopy (TROSY) was used for all HSQC experiments.

[3] = system: Drosophila overexpressing TDP-43; test: Climbing (negative geotaxis) assay in Drosophila model of ALS overexpressing TDP-43; assay type: in vivo; conditions: fly food supplemented with 50 μM
EGFP = EGFP control-transfected rodent primary cortical neurons, fluorescence; assay type: cell-based, rat; conditions: 5 to 100 μM
Description: (§3) FIG. 6. nTRD22 effect on primary cortical neurons. Confocal images of rodent primary cortical neurons with transfected TDP43-EGFP with A. DMSO, or B. […] nTRD22. Quantitation of GFP signal in TDP-43-EGFP (C) or EGFP (D) transfected primary neurons treated with increasing concentration of nTRD22 or DMSO. Data is presented as mean±SEM (n≥183 neurons from 8 technical and 3 biological replicates). Statistical difference was assessed by a Kruskal-Wallis test (*** p<0.001; **p=0.01).
(§4) To test this, TDP-43 fused to enhanced green fluorescent protein (TDP43-EGFP) was expressed in rodent primary cortical neurons, applied nTRD22 at concentrations ranging from 5 to 100 μM, and imaged GFP positive cells by automated fluorescence microscopy^1819. […] No changes in the fluorescence of control cells transfected with EGFP was observed (FIG. 6D).
(§5) Cell culture and transfection. […]
(§6) Fluorescence microscopy. […]
(§7) Image analysis. Custom ImageJ/Fiji macros and Python scripts (described in PMC6050042) were used to identify neurons and draw regions of interest (ROIs) based upon size, morphology, and fluorescence intensity. Additional scripts were used to identify and draw regions of interest (ROIs) surrounding each cell, and measure fluorescence intensity within individual ROIs. […]

TDP-431-260 [4] = target: T3, TDP-431-260 (Homo sapiens, UniProt Q13148); test: Microscale thermophoresis (MST); assay type: binding; conditions: NT-647 labeled TDP431-260, 0.03 μM-1 mM compound, mean±SD n=3; read-out: apparent Kd
T3 construct: Human TDP-431-260 and TDP43102-269 were expressed as described in our previous studies; made in house
Description: FIG. 3. Modeling of binding and affinity of nTRD22 for TDP-43. A. Structure of N-(2-(3-hydroxypiperidin-1-yl)ethyl)-5-((3-(trifluoromethyl)phenoxy)methyl)isoxazole-3-carboxamide (nTRD22). B. 2D representation of nTRD22 binding pocket in TDP-43 NTD. C. MST values from thermographs of NT-647 labeled TDP431-260 in presence of increasing concentrations (0.03 μM-1 mM) of nTRD22 were used to determine dissociation constant for binding of nTRD22 to TDP431-260. […] Data is presented as mean±SD (n=3).
In-silico docking of nTRD22 predicted interactions with Q3, Y43, S48, G59, and A66 (FIG. 3A). ^1H-NMR of nTRD22 was used to evaluate the on-resonance energy transfer from STD-NMR of nTRD22 with TDP-431-260. The peaks seen in the STD-NMR spectrum were in the region of the benzyl group (ii, 6.9-7.2 ppm) (FIG. 2C) confirming the […] interaction of the benzene group of nTRD22 with Tyr43, predicted by virtual screening.
Microscale Thermophoresis (MST). Microscale thermophoresis experiments were performed using a NanoTemper Monolith Instrument (NT.115), similarly to Frangois-Moutal, L.; et al., ACS Chem. Biol. 2019, 14, 2006-2013.

TDP-431-260 [5] = target: T3, TDP-431-260; test: STD-NMR screening of compound binding to TDP-43 1-260; conditions: 500 μM compound, 5 μM protein
Description: (§8) FIG. 2. STD-NMR screening for compounds. A. Two different constructs were used for STD-NMR screening. 1D ^1H STD NMR showing on-resonance difference spectrum of 500 μM of compounds nTRD09-16 (B) or nTRD19-28 (C) with 5 μM TDP431-260. D. Positive hits from the first round of STD-NMR screening were tested against TDP43102-269 in the same conditions. Asterisks indicate positive signal.
(§9) Saturation transfer difference nuclear magnetic resonance (STD-NMR) spectroscopy was then used to screen the binding of the compounds to TDP-431-260. As a negative control, binding to TDP43102-269 lacking the NTD was also determined (FIG. 2A). […]
(§10) Saturation Transfer Difference Nuclear Magnetic Resonance (STD-NMR). Spectroscopy for small molecule binding. 1D ^1H STD-NMR was performed exactly as previously described (see, Frangois-Moutal, L.; et al., ACS Chem. Biol. 2019, 14, 2006-2013; Frangois-Moutal, L.; et al., ACS Chem. Biol. 2018, 13, 3000-3010).

TDP43-EGFP = target: T4, TDP43-EGFP (Homo sapiens, UniProt Q13148); test: TDP43-EGFP in rodent primary cortical neurons, automated fluorescence microscopy; assay type: cell-based, rat; conditions: 5 to 100 μM
T4 construct: expressed in transfected cells; host or cells: primary cortical neurons from embryonic day 20-21 Long Evans rat pups
Description: as §3, §4, §5, §6, §7

TDP-431-260 [6] = target: T3, TDP-431-260; test: 2D 15N-HSQC NMR of TDP-43 1-260 with compound; assay type: binding
Description: 2D ^15N-HSQC NMR spectrum of each positive hit was tested to further define the binding sites of the small molecule interactions with TDP-43 (FIG. 9). Using TDP-431-260, small molecules were added at a 4:1 molar ratio.
as §1, §2

TDP43102-269 = target: T5, TDP43102-269 (Homo sapiens, UniProt Q13148); test: STD-NMR negative control on TDP43 102-269 lacking the NTD; assay type: binding; conditions: same conditions, negative control construct
T5 construct: made in house
Description: as §8, §9, §10

T3 sequence (Q13148 1-260 limits assumed): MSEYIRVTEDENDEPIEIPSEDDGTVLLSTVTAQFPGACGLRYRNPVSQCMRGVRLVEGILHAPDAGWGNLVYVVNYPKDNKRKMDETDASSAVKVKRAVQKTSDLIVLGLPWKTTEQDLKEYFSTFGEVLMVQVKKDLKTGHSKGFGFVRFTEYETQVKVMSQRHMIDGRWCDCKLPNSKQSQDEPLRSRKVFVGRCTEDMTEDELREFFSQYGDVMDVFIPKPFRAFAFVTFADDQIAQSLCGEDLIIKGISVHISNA
T4 sequence (Q13148 whole entry): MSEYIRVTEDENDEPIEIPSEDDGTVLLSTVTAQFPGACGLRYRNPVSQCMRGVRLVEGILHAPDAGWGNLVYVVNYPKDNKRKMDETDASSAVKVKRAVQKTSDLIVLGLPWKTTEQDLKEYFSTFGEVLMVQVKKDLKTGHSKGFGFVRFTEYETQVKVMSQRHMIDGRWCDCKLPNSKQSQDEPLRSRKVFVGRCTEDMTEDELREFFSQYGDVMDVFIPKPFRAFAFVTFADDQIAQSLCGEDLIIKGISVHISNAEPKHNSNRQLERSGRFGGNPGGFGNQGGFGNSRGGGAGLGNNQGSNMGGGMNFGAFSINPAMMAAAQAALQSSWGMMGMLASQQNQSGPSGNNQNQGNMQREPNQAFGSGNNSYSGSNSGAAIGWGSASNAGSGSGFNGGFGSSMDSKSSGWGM
T2 sequence (Q13148 102-269 limits assumed): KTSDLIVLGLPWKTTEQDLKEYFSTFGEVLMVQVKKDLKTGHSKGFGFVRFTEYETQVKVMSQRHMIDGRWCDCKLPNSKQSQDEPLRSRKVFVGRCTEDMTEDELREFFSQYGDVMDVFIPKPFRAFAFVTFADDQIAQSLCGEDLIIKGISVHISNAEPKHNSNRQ
T5 sequence (Q13148 102-269): as the sequence (Q13148 102-269 limits assumed) above
T1 sequence (Q13148 1-260 limits assumed): as the sequence (Q13148 1-260 limits assumed) above

O=C(NCCN1CCCC(O)C1)c1cc(COc2cccc(C(F)(F)F)c2)on1 (stereo not drawn) [nTRD22, N-(2-(3-hydroxypiperidin-1-yl)ethyl)-5-((3-(trifluoromethyl)phenoxy)methyl)isoxazole-3-carboxamide]
IC50 [1]: ~100 µM | 2D 15N-HSQC chemical shifts on TDP43102-269 [2]: No shifts were observed | climbing / motor performance in young (5-6 dpe) and aged (19-20 dpe) flies ([3]; versus DMSO 0.05%): rescue effect was increased in aged flies; also recorded: increased motor performance | climbing / motor performance versus DMSO treated or naive flies ([3]; n=60): significantly able to rescue climbing defects; also recorded: increased motor performance | fluorescence of control cells transfected with EGFP (EGFP): No changes | Kd (TDP-431-260 [4]): 145 ± 3 µM | STD-NMR binding to TDP-431-260 (TDP-431-260 [5]): positive hits | TDP43-EGFP steady state levels (GFP signal) (TDP43-EGFP): dose-dependent reduction | intranuclear TDP43-EGFP droplet-like structures (TDP43-EGFP): formation of intranuclear TDP43-EGFP droplet-like structures | 2D 15N-HSQC: aggregation / chemical shift perturbations (TDP-431-260 [6]; compound:protein 4:1 molar ratio, 100 μM protein): no protein aggregation with visible chemical shift perturbations | 2D 15N-HSQC chemical shifts on titration (TDP-431-260 [6]; increasing concentrations up to 8:1 molar ratio nTRD22:TDP-431-260): the majority of them occurring in the RRM region of the protein | STD-NMR binding to TDP43102-269 (lacking NTD) (TDP43102-269): did not

Source: patent US20230250094A1, “SMALL MOLECULE INHIBITORS OF TDP-43 ACTIVITY AND USES THEREOF” (Arizona Board of Regents on Behalf of the University of …, priority 2020, published 2023)
